In ChEMBL document CHEMBL3885861, “Open TG-GATES”:

Species on record: Rattus norvegicus
Assay: Open TG-GATES - Regimen: Daily Repeat
Type: toxicity, organism-based, Sprague-Dawley
Set-up: regimen Daily Repeat, gender Male, age 6 weeks
Conditions: in vivo, po, route gavage; for APTT / Bas / Eos / Fbg / Hb / Ht / Lym / MCH / MCHC / MCV / Mono / Neu / PT / Plat / RBC / Ret / WBC: tissue Blood; for KIDNEY_L / KIDNEY_R / KIDNEY_TOTAL: tissue Kidney; for LIVER: tissue Liver; for A/G / ALP / ALT / AST / BUN / CRE / Ca / Cl / DBIL / GLC / IP / K / LDH / Na / PL / RALB / TBIL / TC / TG / TP / gamma-GTP: tissue Plasma
[1] = 0 mg/kg, 72 h, dose level Control, time 3 day
[2] = 0 mg/kg, […], dose level Control, time 7 day
[3] = 0 mg/kg, […], dose level Control, time 14 day
[4] = 0 mg/kg, […], dose level Control, time 28 day
[5] = 100 mg/kg, 72 h, dose level Low, time 3 day
[6] = 100 mg/kg, […], dose level Low, time 7 day
[7] = 100 mg/kg, […], dose level Low, time 14 day
[8] = 100 mg/kg, […], dose level Low, time 28 day

## O=C(O)c1ccccc1Nc1ccccc1 [FENAMIC ACID]
[1]
  TERMINAL_BW: 237 g
  APTT: 16.2 s
  Bas: 0.4%
  Eos: 1.2%
  Fbg: 270.2 mg/dL
  Hb: 13.9 g/dL
  Ht: 41.7%
  Lym: 75.2%
  MCH: 20.9 pg
  MCHC: 33.3%
  MCV: 62.7 fL
  Mono: 2.6%
  Neu: 20.6%
  PT: 14.3 s
  Plat: 121.2 x10_4/uL
  RBC: 664.6 x10_4/ul
  Ret: 6.5%
  WBC: 95.3 x10_2/uL
  KIDNEY_L: 1 g
  KIDNEY_R: 1 g
  KIDNEY_TOTAL: 2 g
  LIVER: 10.9 g
  A/G: 0.9
  ALP: 1663.4 IU/L
  ALT: 35.4 IU/L
  AST: 63.4 IU/L
  BUN: 13.2 mg/dL
  CRE: 0.2 mg/dL
  Ca: 11.6 mg/dL
  Cl: 106.8 meq/L
  DBIL: 0.01 mg/dL
  GLC: 185.8 mg/dL
  IP: 7.2 mg/dL
  K: 4.3 meq/L
  LDH: 97.8 IU/L
  Na: 143.8 meq/L
  PL: 147.4 mg/dL
  RALB: 2.7 g/dL
  TBIL: 0.044 mg/dL
  TC: 73.4 mg/dL
  TG: 91.8 mg/dL
  TP: 5.7 g/dL
  gamma-GTP: 1.6 IU/L
[2]
  TERMINAL_BW: 271.7 g
  APTT: 16.2 s
  Bas: 0.8%
  Eos: 1%
  Fbg: 278.2 mg/dL
  Hb: 13.5 g/dL
  Ht: 40.3%
  Lym: 80.2%
  MCH: 20.5 pg
  MCHC: 33.5%
  MCV: 61 fL
  Mono: 2.2%
  Neu: 15.6%
  PT: 13.8 s
  Plat: 118.4 x10_4/uL
  RBC: 661.2 x10_4/ul
  Ret: 5.4%
  WBC: 84.5 x10_2/uL
  KIDNEY_L: 1.1 g
  KIDNEY_R: 1.1 g
  KIDNEY_TOTAL: 2.2 g
  LIVER: 12.7 g
  A/G: 0.9
  ALP: 1493 IU/L
  ALT: 38 IU/L
  AST: 68.4 IU/L
  BUN: 14.2 mg/dL
  CRE: 0.2 mg/dL
  Ca: 11.4 mg/dL
  Cl: 106.2 meq/L
  DBIL: 0.01 mg/dL
  GLC: 190.4 mg/dL
  IP: 6.7 mg/dL
  K: 4.3 meq/L
  LDH: 105 IU/L
  Na: 143.2 meq/L
  PL: 148.4 mg/dL
  RALB: 2.6 g/dL
  TBIL: 0.03 mg/dL
  TC: 73 mg/dL
  TG: 119.4 mg/dL
  TP: 5.7 g/dL
  gamma-GTP: 1 IU/L
[3]
  TERMINAL_BW: 334.6 g
  APTT: 16.3 s
  Bas: 0.4%
  Eos: 1%
  Fbg: 296.2 mg/dL
  Hb: 14.5 g/dL
  Ht: 42.3%
  Lym: 82.6%
  MCH: 20.2 pg
  MCHC: 34.2%
  MCV: 59.2 fL
  Mono: 1.8%
  Neu: 14.2%
  PT: 14.1 s
  Plat: 112.2 x10_4/uL
  RBC: 714.8 x10_4/ul
  Ret: 4%
  WBC: 73.8 x10_2/uL
  KIDNEY_L: 1.3 g
  KIDNEY_R: 1.3 g
  KIDNEY_TOTAL: 2.5 g
  LIVER: 14.7 g
  A/G: 0.8
  ALP: 1698.4 IU/L
  ALT: 36 IU/L
  AST: 63.2 IU/L
  BUN: 13.8 mg/dL
  CRE: 0.3 mg/dL
  Ca: 11.2 mg/dL
  Cl: 105.2 meq/L
  DBIL: 0.004 mg/dL
  GLC: 184 mg/dL
  IP: 7.1 mg/dL
  K: 4 meq/L
  LDH: 78.2 IU/L
  Na: 144 meq/L
  PL: 143.2 mg/dL
  RALB: 2.7 g/dL
  TBIL: 0.032 mg/dL
  TC: 68.6 mg/dL
  TG: 108.6 mg/dL
  TP: 5.9 g/dL
  gamma-GTP: 1 IU/L
[4]
  TERMINAL_BW: 425.8 g
  APTT: 15.8 s
  Bas: 0.2%
  Eos: 1%
  Fbg: 296 mg/dL
  Hb: 14.9 g/dL
  Ht: 43%
  Lym: 79.2%
  MCH: 19.4 pg
  MCHC: 34.6%
  MCV: 55.9 fL
  Mono: 1.6%
  Neu: 17.2%
  PT: 14.2 s
  Plat: 104.1 x10_4/uL
  RBC: 768.8 x10_4/ul
  Ret: 2.7%
  WBC: 92.6 x10_2/uL
  KIDNEY_L: 1.5 g
  KIDNEY_R: 1.5 g
  KIDNEY_TOTAL: 2.9 g
  LIVER: 17 g
  A/G: 0.8
  ALP: 1171.8 IU/L
  ALT: 32.4 IU/L
  AST: 58.2 IU/L
  BUN: 14.8 mg/dL
  CRE: 0.3 mg/dL
  Ca: 11.1 mg/dL
  Cl: 105.2 meq/L
  DBIL: 0.006 mg/dL
  GLC: 192.8 mg/dL
  IP: 6.9 mg/dL
  K: 4 meq/L
  LDH: 104 IU/L
  Na: 144.4 meq/L
  PL: 133.8 mg/dL
  RALB: 2.8 g/dL
  TBIL: 0.05 mg/dL
  TC: 64.8 mg/dL
  TG: 134.8 mg/dL
  TP: 6.2 g/dL
  gamma-GTP: 1 IU/L
[5]
  TERMINAL_BW: 236.5 g
  APTT: 15.6 s
  Bas: 0.6%
  Eos: 1%
  Fbg: 286.4 mg/dL
  Hb: 13.5 g/dL
  Ht: 40.5%
  Lym: 79.6%
  MCH: 20.9 pg
  MCHC: 33.4%
  MCV: 62.6 fL
  Mono: 2%
  Neu: 16.8%
  PT: 14.2 s
  Plat: 122.4 x10_4/uL
  RBC: 647.6 x10_4/ul
  Ret: 7.2%
  WBC: 82.6 x10_2/uL
  KIDNEY_L: 1 g
  KIDNEY_R: 1 g
  KIDNEY_TOTAL: 2 g
  LIVER: 11.2 g
  A/G: 0.9
  ALP: 1990.6 IU/L
  ALT: 37.6 IU/L
  AST: 64.2 IU/L
  BUN: 13.8 mg/dL
  CRE: 0.2 mg/dL
  Ca: 11.7 mg/dL
  Cl: 106.2 meq/L
  GLC: 184.4 mg/dL
  IP: 6.9 mg/dL
  K: 4.2 meq/L
  LDH: 82 IU/L
  Na: 143.6 meq/L
  PL: 144.2 mg/dL
  RALB: 2.7 g/dL
  TC: 75.6 mg/dL
  TG: 72.2 mg/dL
  TP: 5.6 g/dL
  gamma-GTP: 1.2 IU/L
[6]
  TERMINAL_BW: 277.8 g
  APTT: 16 s
  Bas: 0.6%
  Eos: 1%
  Fbg: 288.2 mg/dL
  Hb: 13.4 g/dL
  Ht: 39.6%
  Lym: 73%
  MCH: 20.9 pg
  MCHC: 33.9%
  MCV: 61.5 fL
  Mono: 2.6%
  Neu: 22.8%
  PT: 13.9 s
  Plat: 114.4 x10_4/uL
  RBC: 642.8 x10_4/ul
  Ret: 5.7%
  WBC: 82.6 x10_2/uL
  KIDNEY_L: 1.2 g
  KIDNEY_R: 1.2 g
  KIDNEY_TOTAL: 2.3 g
  LIVER: 13 g
  A/G: 0.9
  ALP: 1790.8 IU/L
  ALT: 37 IU/L
  AST: 63.4 IU/L
  BUN: 13.4 mg/dL
  CRE: 0.2 mg/dL
  Ca: 11.4 mg/dL
  Cl: 105.6 meq/L
  GLC: 182 mg/dL
  IP: 6.8 mg/dL
  K: 4.3 meq/L
  LDH: 94.6 IU/L
  Na: 142.8 meq/L
  PL: 160.6 mg/dL
  RALB: 2.7 g/dL
  TC: 80.2 mg/dL
  TG: 136.8 mg/dL
  TP: 5.8 g/dL
  gamma-GTP: 1 IU/L
[7]
  TERMINAL_BW: 337.7 g
  APTT: 16.8 s
  Bas: 0.8%
  Eos: 1%
  Fbg: 308.8 mg/dL
  Hb: 14.4 g/dL
  Ht: 41.6%
  Lym: 75.4%
  MCH: 20.8 pg
  MCHC: 34.5%
  MCV: 60.3 fL
  Mono: 2.4%
  Neu: 20.2%
  PT: 13.7 s
  Plat: 118.3 x10_4/uL
  RBC: 689.4 x10_4/ul
  Ret: 4.5%
  WBC: 82.2 x10_2/uL
  KIDNEY_L: 1.3 g
  KIDNEY_R: 1.2 g
  KIDNEY_TOTAL: 2.5 g
  LIVER: 14.7 g
  A/G: 0.9
  ALP: 1703.6 IU/L
  ALT: 35.6 IU/L
  AST: 63.6 IU/L
  BUN: 14.2 mg/dL
  CRE: 0.3 mg/dL
  Ca: 11.1 mg/dL
  Cl: 105.2 meq/L
  GLC: 179.4 mg/dL
  IP: 7 mg/dL
  K: 4.2 meq/L
  LDH: 95 IU/L
  Na: 143.4 meq/L
  PL: 158.4 mg/dL
  RALB: 2.7 g/dL
  TC: 80.8 mg/dL
  TG: 109.2 mg/dL
  TP: 5.8 g/dL
  gamma-GTP: 1 IU/L
[8]
  TERMINAL_BW: 419.6 g
  APTT: 17.2 s
  Bas: 0.2%
  Eos: 1%
  Fbg: 305.2 mg/dL
  Hb: 15.1 g/dL
  Ht: 43.9%
  Lym: 78.2%
  MCH: 19.4 pg
  MCHC: 34.5%
  MCV: 56.2 fL
  Mono: 2%
  Neu: 18%
  PT: 14.3 s
  Plat: 103.7 x10_4/uL
  RBC: 780.8 x10_4/ul
  Ret: 2.6%
  WBC: 94 x10_2/uL
  KIDNEY_L: 1.5 g
  KIDNEY_R: 1.5 g
  KIDNEY_TOTAL: 3 g
  LIVER: 16.7 g
  A/G: 0.8
  ALP: 1187.4 IU/L
  ALT: 33.4 IU/L
  AST: 59.2 IU/L
  BUN: 14.2 mg/dL
  CRE: 0.3 mg/dL
  Ca: 11 mg/dL
  Cl: 105.6 meq/L
  GLC: 179.6 mg/dL
  IP: 6.5 mg/dL
  K: 3.9 meq/L
  LDH: 87 IU/L
  Na: 144.6 meq/L
  PL: 154.2 mg/dL
  RALB: 2.8 g/dL
